“Also recorded” adds a separate entry of the source.
How the values were obtained:
[1] = test system: ATII cells and BALF of IL-17A treated mice; test: IL-17A-induced lung injury in mice; format: in vivo, mouse; details: for A2EC p53, PAI-1 and apoptosis: WT mice exposed to IL-17A
Method: IL-17A is induced in passive tobacco smoke (PTS) exposed lung injury. […] Further, IL-17A induced ^p15Sp53 was inhibited following treatment of mice CSP7 when compared with those treated with saline and control peptide. To further test whether IL-17A induced ^p15Sp53 alters PAI-1 expression and ATII apoptosis, ATII cells of IL-17A treated mice for PAI-1 and apoptotic markers were analyzed. IL-17A induced the expression of PAI-1 and cl.Cas-3, and inhibited Sirt-1 expression in ATII cells. […] In addition, CSP7 treatment found to inhibit serine phosphorylation of p53 by neutralizing elevated IL-17A due to PTS exposure.
To test the importance of miR-34a mediated deacetylation of p53 IL-17A or PTS induced lung injury, miR34a conditional knockout mice were treated with tamoxifen. miR34a conditional knockout mice treated with IL-17A (3 μg/mice) was administered with CSP7 and CP a day later. ATII cells isolated from these mice were screened for PAI-1, Sirt-1 and apoptotic markers. […] Further, CSP7 treatment had little effect in miR-34a^cKo mice since these mice resist IL-17A or PTS injury.

[2] = test system: A2Cs and lungs of WT mice with CLP injury; test: Cecal ligation puncture (CLP) sepsis-induced ALI in WT mice; format: in vivo, mouse
Method: This model was described in detail in publication of the present inventor and colleagues, Gao, R et al., Am. J. Physiol. Mol. Physiol, 2015, 308:L847-L853.
WT mice were injected IP with vehicle, 1.5 mg/kg of CSP or control peptide (CP) 24 h after CLP injury. Sham-operated mice served as controls. Total RNA isolated from the lungs of these mice 72 h after CLP was quantitated for IL-17A mRNA by real-time PCR.
A2Cs were isolated from the lungs of these mice 72 h after CLP, and immunoblotted to assess changes in PAI-1, p53 and caspase-3 activation. All were increased by 72 h during CLP injury.
Mice were injected IP with CSP or control peptide (CP) 24 h after CLP injury. A2Cs isolated from these mice 72 h after CLP injury were immunoblotted for caveolin-1 and β-actin. Lysates of A2Cs from WT mice exposed to the above conditions were immunoprecipitated (IP) for PP2A-C and immunoblotted (IB) for caveolin-1 (Cav1) to assess their interaction.
Mice treated with or without CSP or CP 24 h after CLP injury were euthanized 72 h later and. lung tissues subjected to H&E staining to assess changes in lung inflammation. Lung homogenates and BAL fluids were analyzed for myeloperoxidase (MPO) to access PMN accumulation.
Mice were IP injected with CSP, CP or vehicle 24 h after CLP injury. Total RNA isolated from A2Cs of WT mice with or without CLP, CLP+CSP or CLP+CP 72 h after CLP induced ALI was reverse transcribed and subjected to real time PCR.
A2Cs isolated from mice with CLP, CLP+CSP or CLP+CP were immunoblotted for SP-C, thyroid transcription factor-1 (TTF-1) and β-actin. TTF-1 controls transcription of SP-C.
A2Cs isolated from mice 72 h after IP injection with CSP or CP alone without CLP injury and the lysates were immunoblotted for changes in SP-C expression. Lysates of A2Cs from uninjured (sham-operated) or CLP mice were also used for comparison.

PP2A = target: T1, PP2A (Mus musculus, UniProt P63330); test: PP2A activity assay in lung homogenates of CS exposed WT mice; format: in vivo; details: WT mice with CS-LI, Neb or IP, 4 weeks
T1 construct: from tissue; host or cells: lung homogenates of WT C57BL/6J mice
Method: PP2A Activity Determination and PP2A Inhibitors PP2A activity was determined using the Millipore PP2A activity assay (17-313; Millipore) (Nath S, et al., Am J Respir Cell Mol Biol. 59:695-705, 2018 December).
Determination of protein phosphatase 2A (PP2A) activity. PP2A activity was determined in isolated AECs and lung homogenates using the PP2A activity assay kit (Millipore) (Nath et al, Am J Respir Cell Mol Biol 59:695-705, 2018. doi: 10.1165/rcmb.2018-01730C.)

[3] = test system: AECs from nL overexpressing CAV1, p53 or PAI-1; test: AECs transduced with Ad-CAV1, Ad-p53 or Ad-PAI-1; format: cell-based, human
Method: Expression of CAV1, p53, or PAI-1 in AECs. AECs isolated from nL were separately transduced with Ad-CAV1 or Ad-p53 or Ad-PAI-1. AECs transduced with Ad-Ev were used as controls. In a separate experiment, AECs from nL in culture dishes were treated with Lv-p53 or Lv-PAI-1 shRNA to suppress its baseline expression before treating these cells with CSE. Naive AECs and AECs exposed to non-specific control shRNA was used as controls.

T1 sequence (P63330 whole entry): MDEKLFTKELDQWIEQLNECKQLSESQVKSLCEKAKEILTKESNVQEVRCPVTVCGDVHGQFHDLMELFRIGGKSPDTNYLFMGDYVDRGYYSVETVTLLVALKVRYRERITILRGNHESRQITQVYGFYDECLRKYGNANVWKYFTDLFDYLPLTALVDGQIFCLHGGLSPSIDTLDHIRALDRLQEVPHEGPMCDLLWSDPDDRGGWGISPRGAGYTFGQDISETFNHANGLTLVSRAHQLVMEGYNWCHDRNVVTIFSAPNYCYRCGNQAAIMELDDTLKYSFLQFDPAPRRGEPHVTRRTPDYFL

Substance | A2EC p53, PAI-1 and apoptosis [1] | IL-17A in lung tissues ([2]; 1.5 mg/kg IP 24 h after CLP, 72 h) | miR-34a expression in A2Cs (real time PCR, normalized to U6) ([2]; 72 h after CLP) | A2C apoptosis, p53 and PAI-1 expression ([2]; IP 24 h after CLP, 72 h) | A2C caveolin-1 interaction with PP2A-C (IP/IB) ([2]; IP 24 h after CLP, 72 h) | accumulation of PMN (MPO, H&E) ([2]; IP 24 h after CLP, 72 h) | SP-C expression by A2Cs ([2]; normal lungs, without CLP injury, 72 h after IP) | SP-C expression by A2Cs ([2]; sepsis-induced ALI) | inhibition of miR-34a in A2Cs ([2]; vs CLP or CLP+CP, 3 days after injury) [fold] | PP2A activity / signaling (PP2A) | IL-17A induced serine phosphorylation of p53 (p15Sp53) in ATII cells ([1]; IL-17A treated mice, vs saline and control peptide) | effect in miR-34a^cKO mice ([1]; miR34a conditional knockout mice treated with IL-17A) | BALF myeloperoxidase (MPO) activity ([1]; mice with IL-17A or PTS (10 weeks) injury) | MUC5AC, HDAC6, FOXA3, LC3, FOXA2, acetylated alpha-tubulin; mucus hypersecretion and cilia disassembly ([3]; Ad-CAV1 transduced AECs) | p53 and PAI-1 expression ([3]; Ad-CAV1 transduced AECs) | MUC5AC, HDAC6, FOXA3, p53, LC3, acetylated alpha-tubulin ([3]; Ad-PAI-1 transduced AECs) | MUC5AC, acetylated alpha-tubulin, FOXA2, CAV1, p53, PAI-1 ([3]; Ad-p53 transduced AECs)
DGIWKASFTTFTVTKYWFYR (listed as Homo sapiens) [CSP, 20 residue caveolin-1 scaffolding domain peptide] | reduced A2EC p53, PAI-1 and apoptosis in vivo | suppressed sepsis induced IL-17A | significantly reduced | concurrent inhibition of A2C apoptosis and p53 and PAI-1 expression | inhibited the A2C caveolin-1 interaction with PP2A-C | significantly inhibited accumulation of PMN | induced SP-C expression | induction of SP-C expression | 7 | – | – | – | – | – | – | – | –
WGIDKAFFTTSTVTYKWFRY [CP, scrambled control peptide with the same amino acid composition as CSP, reference compound] | – | – | – | – | – | – | – | – | – | still showed loss of PP2A activity | – | – | – | – | – | – | –
FTTFTVT (listed as Homo sapiens) [CSP7, heptapeptide fragment of the caveolin-1 scaffolding domain peptide CSP] | reduced A2EC p53, PAI-1 and apoptosis in vivo | – | – | – | – | – | – | – | – | reversed by CSP7; also recorded: improved PP2A activity | inhibited | little effect | significantly reduced the MPO activity | can mitigate the mucus hypersecretion and cilia disassembly; also recorded: reduced CAV1-induced MUC5AC, HDAC6, FOXA3, and LC3 while restoring FOXA2 and acetylated alpha-tubulin | reduced the expression of p53 and PAI-1 | reversed | reduced MUC5AC and restored acetylated alpha-tubulin and FOXA2, while inhibiting CAV1, p53, and PAI-1
